Results reported in patent US20240217963A1, “RECEPTOR-INTERACTING PROTEIN 1 INHIBITORS, PREPARATIONS, AND USES THEREOF” (SIRONAX LTD., priority 2021, published 2024).

The compounds below were run against T1, RIP1 (Homo sapiens, UniProt Q13546) (assay: Cellular RIP1 inhibitory activity: HT-29 necroptosis (TNFα/SMAC mimetic/zVAD-FMK) CellTiter-Glo viability assay). Settings: HT-29 cells, TNF-α 10 ng/ml + SMAC mimetic 6 μM + zVAD-FMK 10 μM, 20 hours, geometric mean, read-out: EC50 Values of in vitro Cellular RIP1 Inhibitory Activity.
T1 sequence (Q13546 1-671): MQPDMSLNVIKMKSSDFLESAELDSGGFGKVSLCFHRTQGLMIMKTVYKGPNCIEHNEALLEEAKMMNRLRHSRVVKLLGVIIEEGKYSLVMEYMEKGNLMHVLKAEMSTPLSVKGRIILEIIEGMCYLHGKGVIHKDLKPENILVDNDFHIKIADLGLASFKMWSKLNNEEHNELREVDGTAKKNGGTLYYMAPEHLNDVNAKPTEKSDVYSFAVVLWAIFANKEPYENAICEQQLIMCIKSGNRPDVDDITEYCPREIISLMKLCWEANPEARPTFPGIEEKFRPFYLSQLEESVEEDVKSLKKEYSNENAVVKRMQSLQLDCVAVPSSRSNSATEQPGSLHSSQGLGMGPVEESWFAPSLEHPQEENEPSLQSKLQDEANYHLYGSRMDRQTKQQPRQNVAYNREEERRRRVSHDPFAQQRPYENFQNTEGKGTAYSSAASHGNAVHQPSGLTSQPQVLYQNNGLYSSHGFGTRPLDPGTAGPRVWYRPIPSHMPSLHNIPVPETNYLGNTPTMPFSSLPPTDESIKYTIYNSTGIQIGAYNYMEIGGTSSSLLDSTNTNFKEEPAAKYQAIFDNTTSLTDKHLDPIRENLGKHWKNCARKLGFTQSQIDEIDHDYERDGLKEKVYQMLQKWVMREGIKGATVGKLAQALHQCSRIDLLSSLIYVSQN
Type: cell-based
Work on `CCN(Cc1sc(C)nc1C)C(=O)C1CCN(c2ncc(F)c(-c3c(C)cnn3C)n2)CC1` [Compound 70, 1-(4-(1,4-dimethyl-1H-pyrazol-5-yl)-5-fluoropyrimidin-2-yl)-N-((2,4-dimethylthiazol-5-yl)methyl)-N-ethylpiperidine-4-carboxamide] yielded an EC50 of 1000 to 10000 nM. `Cc1csc(CN(C)C(=O)C2CCN(c3ncc(F)c(-c4c(C)cnn4C)n3)CC2)n1` [Compound 71, 1-(4-(1,4-dimethyl-1H-pyrazol-5-yl)-5-fluoropyrimidin-2-yl)-N-methyl-N-((4-methylthiazol-2-yl)methyl)piperidine-4-carboxamide] was tested, and the EC50 was 0.1 to 100 nM. `CCN(Cc1nc(C)cs1)C(=O)C1CCN(c2ncc(F)c(-c3c(C)cnn3C)n2)CC1` [Compound 72, 1-(4-(1,4-dimethyl-1H-pyrazol-5-yl)-5-fluoropyrimidin-2-yl)-N-ethyl-N-((4-methylthiazol-2-yl)methyl)piperidine-4-carboxamide] showed an EC50 of 0.1 to 100 nM. Work on `[2H]C([2H])([2H])N(C(=O)C1CCN(c2nc(-c3c(C)cnn3C)ncc2F)CC1)C([2H])([2H])c1cc(F)cc(F)c1F` [Compound 73, 1-(2-(1,4-dimethyl-1H-pyrazol-5-yl)-5-fluoropyrimidin-4-yl)-N-(methyl-d3)-N-((2,3,5-trifluorophenyl)methyl-d2)piperidine-4-carboxamide] yielded an EC50 of 0.1 to 100 nM. Compound `[2H]C([2H])([2H])N(C(=O)C1CCN(c2ncc(F)c(-c3c(C)cnn3C)n2)CC1)C([2H])([2H])c1cc(F)cc(F)c1F` [Compound 74, 1-(4-(1,4-dimethyl-1H-pyrazol-5-yl)-5-fluoropyrimidin-2-yl)-N-(methyl-d3)-N-((2,3,5-trifluorophenyl)methyl-d2)piperidine-4-carboxamide] has an EC50 of 0.1 to 100 nM. Compound `[2H]C([2H])([2H])N(C(=O)C1CCN(c2ncc(F)c(-c3ncnn3C)n2)CC1)C([2H])([2H])c1cc(F)cc(F)c1F` [Compound 75, 1-(5-fluoro-4-(1-methyl-1H-1,2,4-triazol-5-yl)pyrimidin-2-yl)-N-(methyl-d3)-N-((2,3,5-trifluorophenyl)methyl-d2)piperidine-4-carboxamide] has an EC50 of 0.1 to 100 nM. Compound `[2H]C([2H])([2H])N(C(=O)C1CCN(c2ncc(F)c(-n3nc(C)nc3C)n2)CC1)C([2H])([2H])c1cc(F)cc(F)c1F` [Compound 76, 1-(4-(3,5-dimethyl-1H-1,2,4-triazol-1-yl)-5-fluoropyrimidin-2-yl)-N-(methyl-d3)-N-((2,3,5-trifluorophenyl)methyl-d2)piperidine-4-carboxamide] has an EC50 of 0.1 to 100 nM. `[2H]C([2H])([2H])N(Cc1nccs1)C(=O)C1CCN(c2ncc(F)c(-c3c(C)cnn3C)n2)CC1` [Compound 77, 1-(4-(1,4-dimethyl-1H-pyrazol-5-yl)-5-fluoropyrimidin-2-yl)-N-(methyl-d3)-N-(thiazol-2-ylmethyl)piperidine-4-carboxamide] gave an EC50 of 0.1 to 100 nM. In the case of `[2H]C([2H])([2H])N(Cc1nc(C)cs1)C(=O)C1CCN(c2ncc(F)c(-c3c(C)cnn3C)n2)CC1` [Compound 78, 1-(4-(1,4-dimethyl-1H-pyrazol-5-yl)-5-fluoropyrimidin-2-yl)-N-(methyl-d3)-N-((4-methylthiazol-2-yl)methyl)piperidine-4-carboxamide], the EC50 is reported as 0.1 to 100 nM. In the case of `Cc1cnn(C)c1-c1nc(N2CCC(C(=O)N(C)Cc3cc(C)n(C)n3)CC2)ncc1F` [Compound 79, N-((1,5-dimethyl-1H-pyrazol-3-yl)methyl)-1-(4-(1,4-dimethyl-1H-pyrazol-5-yl)-5-fluoropyrimidin-2-yl)-N-methylpiperidine-4-carboxamide], the EC50 is reported as 100 to 1000 nM. `CCN(Cc1cc(C)n(C)n1)C(=O)C1CCN(c2ncc(F)c(-c3c(C)cnn3C)n2)CC1` [Compound 80, N-((1,5-dimethyl-1H-pyrazol-3-yl)methyl)-1-(4-(1,4-dimethyl-1H-pyrazol-5-yl)-5-fluoropyrimidin-2-yl)-N-ethylpiperidine-4-carboxamide] showed an EC50 of 100 to 1000 nM. For `Cc1cnn(C)c1-c1nc(N2CCC(C(=O)N(C)Cc3ccn(C)n3)CC2)ncc1F` [Compound 81, 1-(4-(1,4-dimethyl-1H-pyrazol-5-yl)-5-fluoropyrimidin-2-yl)-N-methyl-N-((1-methyl-1H-pyrazol-3-yl)methyl)piperidine-4-carboxamide], the EC50 was 0.1 to 100 nM. Compound `CCN(Cc1ccn(C)n1)C(=O)C1CCN(c2ncc(F)c(-c3c(C)cnn3C)n2)CC1` [Compound 82, 1-(4-(1,4-dimethyl-1H-pyrazol-5-yl)-5-fluoropyrimidin-2-yl)-N-ethyl-N-((1-methyl-1H-pyrazol-3-yl)methyl)piperidine-4-carboxamide] has an EC50 of 0.1 to 100 nM. Work on `Cc1cnn(C)c1-c1nc(N2CCC(C(=O)N(C)Cc3cnn(C)c3)CC2)ncc1F` [Compound 83, 1-(4-(1,4-dimethyl-1H-pyrazol-5-yl)-5-fluoropyrimidin-2-yl)-N-methyl-N-((1-methyl-1H-pyrazol-4-yl)methyl)piperidine-4-carboxamide] yielded an EC50 of 100 to 1000 nM. Compound `CCN(Cc1cnn(C)c1)C(=O)C1CCN(c2ncc(F)c(-c3c(C)cnn3C)n2)CC1` [Compound 84, 1-(4-(1,4-dimethyl-1H-pyrazol-5-yl)-5-fluoropyrimidin-2-yl)-N-ethyl-N-((1-methyl-1H-pyrazol-4-yl)methyl)piperidine-4-carboxamide] has an EC50 of 100 to 1000 nM. With `Cc1cnn(C)c1-c1nc(N2CCC(C(=O)N(C)Cc3cc(F)cc(F)c3)CC2)ncc1F` [Compound 85, N-(3,5-difluorobenzyl)-1-(4-(1,4-dimethyl-1H-pyrazol-5-yl)-5-fluoropyrimidin-2-yl)-N-methylpiperidine-4-carboxamide] the EC50 was 0.1 to 100 nM. `Cc1cnn(C)c1-c1cc(N2CCC(C(=O)N(C)Cc3nccs3)CC2)c(F)cn1` [Compound 86, 1-(2-(1,4-dimethyl-1H-pyrazol-5-yl)-5-fluoropyridin-4-yl)-N-methyl-N-(thiazol-2-ylmethyl)piperidine-4-carboxamide] gave an EC50 of 0.1 to 100 nM. In the case of `Cc1nnc(CN(C)C(=O)C2CCN(c3ncc(F)c(-c4c(C)cnn4C)n3)CC2)s1` [Compound 87, 1-(4-(1,4-dimethyl-1H-pyrazol-5-yl)-5-fluoropyrimidin-2-yl)-N-methyl-N-((5-methyl-1,3,4-thiadiazol-2-yl)methyl)piperidine-4-carboxamide], the EC50 is reported as 100 to 1000 nM. `Cc1cnn(C)c1-c1cc(N2CCC(C(=O)N(C)Cc3cc(F)cc(F)c3)CC2)ncn1` [Compound 88, N-(3,5-difluorobenzyl)-1-(6-(1,4-dimethyl-1H-pyrazol-5-yl)pyrimidin-4-yl)-N-methylpiperidine-4-carboxamide] was tested, and the EC50 was 0.1 to 100 nM. Compound `CCN(Cc1cc(F)cc(F)c1)C(=O)C1CCN(c2cc(-c3c(C)cnn3C)ncn2)CC1` [Compound 89, N-(3,5-difluorobenzyl)-1-(6-(1,4-dimethyl-1H-pyrazol-5-yl)pyrimidin-4-yl)-N-ethylpiperidine-4-carboxamide] has an EC50 of 100 to 1000 nM. `Cc1cnn(C)c1-c1nc(N2CCC(C(=O)N(C)Cc3nc(C)c(C)s3)CC2)ncc1F` [Compound 90, 1-(4-(1,4-dimethyl-1H-pyrazol-5-yl)-5-fluoropyrimidin-2-yl)-N-((4,5-dimethylthiazol-2-yl)methyl)-N-methylpiperidine-4-carboxamide] was tested, and the EC50 was 0.1 to 100 nM. `Cc1ncc(CN(C)C(=O)C2CCN(c3ncc(F)c(-c4c(C)cnn4C)n3)CC2)s1` [Compound 91, 1-(4-(1,4-dimethyl-1H-pyrazol-5-yl)-5-fluoropyrimidin-2-yl)-N-methyl-N-((2-methylthiazol-5-yl)methyl)piperidine-4-carboxamide] gave an EC50 of 0.1 to 100 nM. Compound `Cc1nc(CN(C)C(=O)C2CCN(c3ncc(F)c(-c4c(C)cnn4C)n3)CC2)c(C)s1` [Compound 92] has an EC50 of 100 to 1000 nM. In the case of `Cc1cnn(C)c1-c1nc(N2CCC(C(=O)N(C)Cc3cscn3)CC2)ncc1F` [Compound 93, 1-(4-(1,4-dimethyl-1H-pyrazol-5-yl)-5-fluoropyrimidin-2-yl)-N-methyl-N-(thiazol-4-ylmethyl) piperidine-4-carboxamide], the EC50 is reported as 0.1 to 100 nM. In the case of `CCN(Cc1cscn1)C(=O)C1CCN(c2ncc(F)c(-c3c(C)cnn3C)n2)CC1` [Compound 94, 1-(4-(1,4-dimethyl-1H-pyrazol-5-yl)-5-fluoropyrimidin-2-yl)-N-ethyl-N-(thiazol-4-ylmethyl) piperidine-4-carboxamide], the EC50 is reported as 0.1 to 100 nM. With `Cc1cnn(C)c1-c1nc(N2CCC(C(=O)N(C)Cc3nccs3)CC2)ncc1F` [Compound 95, 1-(4-(1,4-dimethyl-1H-pyrazol-5-yl)-5-fluoropyrimidin-2-yl)-N-methyl-N-(thiazol-2-ylmethyl)piperidine-4-carboxamide] the EC50 was 0.1 to 100 nM. `CCN(Cc1nccs1)C(=O)C1CCN(c2ncc(F)c(-c3c(C)cnn3C)n2)CC1` [Compound 96, 1-(4-(1,4-dimethyl-1H-pyrazol-5-yl)-5-fluoropyrimidin-2-yl)-N-ethyl-N-(thiazol-2-ylmethyl)piperidine-4-carboxamide] gave an EC50 of 0.1 to 100 nM. In the case of `[2H]C([2H])([2H])N(C(=O)C1CCN(c2ncc(F)c(-c3nnc(C)s3)n2)CC1)C([2H])([2H])c1cc(F)cc(F)c1F` [Compound 97, 1-(5-fluoro-4-(5-methyl-1,3,4-thiadiazol-2-yl)pyrimidin-2-yl)-N-(methyl-d3)-N-((2,3,5-trifluorophenyl)methyl-d2)piperidine-4-carboxamide], the EC50 is reported as 0.1 to 100 nM.
